# Marks after values point to notes of the source that are not given here.
# Columns and labels:
# Format in all cases: in vivo
# [1] = tested on: Male HLA-B27 rats; experiment: HLA-B27 rat test for inflammatory bowel disease: histological scoring of colon; conditions: for Fibrosis (0-2) / Inflammation (0-3) / Lesion depth (0-2) / Total score / Ulceration (0-2): colon histology
# Protocol: Representative metabolites of compounds of the invention were evaluated in the HLA rat standard pharmacological test procedure, which emulates inflammatory bowel disease in humans. The following briefly describes the procedure used and results obtained. […] Louis) and water. Stool quality was observed daily and graded according to the following scale: Diarrhea=3; soft stool=2; normal stool=1. At the end of the study, serum was collected and stored at −70° C. A section of colon was prepared for histological analysis and an additional segment was analyzed for myeloperoxidase activity. In Study A, rats (22-26 weeks old) were dosed subcutaneously once per day for seven days with one of the regimens listed below. […] Histological analysis. Colonic tissue was immersed in 10% neutral buffered formalin. Each specimen of colon was separated into four samples for evaluation. The formalin-fixed tissues were processed in a Tissue-Tek® vaccum infiltration processor (Miles, Inc; West Haven, Conn.) for paraffin embedding. The samples were sectioned at 5 μm and then stained with hematoxylin and eosin (H&E) for blinded histological evaluations using a scale modified after Boughton-Smith. After the scores were completed, the samples were unblinded, and data were tabulated and analyzed by ANOVA linear modeling with multiple mean comparisons. Sections of colonic tissue were evaluated for several disease indicators and given relative scores.
# [2] = tested on: Sexually immature 129 SvE mice; experiment: Mouse uterotrophic test procedure (Procedure 2); conditions: compound 50 mg/kg s.c., days 22-25
# [3] = tested on: Male HLA-B27 rats; experiment: HLA-B27 rat model of arthritis: joint histology; conditions: Study 1; oral 46 days; 10 mg/kg days 1-24, then 20 mg/kg
# Protocol: At the end of the study, the rats are euthanized with CO2, hindlimbs removed at necropsy and fixed in 10% buffered formalin, and the tarsal joints decalcified and embedded in paraffin. Histologic sections are stained with Hematoxylin and Eosin or […] Green stain. Slides are coded so that the examiner is blinded to the treatment groups. Synovial tissue from tarsal joints is evaluated based on synovial hyperplasia, inflammatory cell infiltration, and pannus formation [Poole and Coombs, International Archives of Allergy & Applied Immunology 54: 97-113 (1977)], as outlined below. [table] […] [table] Representative metabolites of compounds of the invention were evaluated in the HLA-B27 rat standard pharmacological test procedure, which emulates arthritis in humans. The following briefly describes the procedure used and results obtained. Male HLA-B27 rats were obtained from Taconic and provided unrestricted access to a food (PMI® LabDiet 5001) and water. Joint scores and histology were evaluated as described above for the Lewis rat model of adjuvant-induced arthritis. Study 1: […]
# [4] = tested on: ovariectomized Sprague-Dawley rats; experiment: Bone mineral density in the ovariectomized rat (pQCT, proximal tibia); conditions: compound 10 mg/kg s.c.; 5 weeks
# [5] = tested on: Male HLA-B27 rats; experiment: HLA rat test for inflammatory bowel disease: stool character (3 = diarrhea; 2 = soft stool; 1 = normal stool)
# [6] = Study C, oral 7 weeks, 10 mg/kg days 1-24, then 20 mg/kg
compound,measurement,setting,value
"C=Cc1cc(O)cc2nc(-c3ccc(O)c(F)c3)oc12 [Example 24, 2-(3-FLUORO-4-HYDROXYPH ENYL)-7-VI NYL-1,3-BENZOXAZOL-5-OL]",Total disease score versus vehicle,"[1]; Study C, oral",significantly reduced total disease score
same,"Fibrosis (0-2), mean ± SD",[1]; [6],0*
same,"Inflammation (0-3), mean ± SD",[1]; [6],0.69 ± 0.24
same,"Lesion depth (0-2), mean ± SD",[1]; [6],0*
same,"Total score, mean ± SD",[1]; [6],0.69 ± 0.24
same,"Ulceration (0-2), mean ± SD",[1]; [6],0*
same,Fibrosis (0-2),"[1]; 1 mg/kg s.c., second study",0.75
same,Inflammation (0-3),"[1]; 1 mg/kg s.c., second study",1.63*
same,Lesion depth (0-2),"[1]; 1 mg/kg s.c., second study",0.88*
same,Total score,"[1]; 1 mg/kg s.c., second study",4.4*
same,Ulceration (0-2),"[1]; 1 mg/kg s.c., second study",1.25
same,Fibrosis (0-2),"[1]; 10 mg/kg s.c., second study",0.50*
same,Inflammation (0-3),"[1]; 10 mg/kg s.c., second study",1.63*
same,Lesion depth (0-2),"[1]; 10 mg/kg s.c., second study",0.69*
same,Total score,"[1]; 10 mg/kg s.c., second study",3.6*
same,Ulceration (0-2),"[1]; 10 mg/kg s.c., second study",0.81*
same,Fibrosis (0-2),[1]; 50 mg/kg s.c.,0*
same,Inflammation (0-3),[1]; 50 mg/kg s.c.,1.05*#
same,Lesion depth (0-2),[1]; 50 mg/kg s.c.,0.2#
same,Total score,[1]; 50 mg/kg s.c.,1.5*#
same,Ulceration (0-2),[1]; 50 mg/kg s.c.,0.25*#
same,"Measurements of tissue injury, colon histology",[1]; composite of two subcutaneous dosing studies,effective in reducing several measurements of tissue injury
same,mean uterine weight ± SEM,[2],10.7 ± 0.9 mg
same,Mankin score (mean ± SD),[3],3.5 ± 1.8
same,Synovitis score (mean ± SD),[3],3.17 ± 0.3
same,Total Bone Mineral Density (mean ± SEM),[4],517.56 ± 9.67 mg/mL
same,Trabecular Bone Mineral Density (mean ± SEM),[4],321.16 ± 9.04 mg/mL
same,Stool quality,"[5]; Study A, 50 mg/kg s.c.",Stool quality was improved
same,Stool Character (group's average score),"[5]; Study A, 50 mg/kg s.c. once per day, Day 1",2.8
same,Stool Character (group's average score),"[5]; Study A, 50 mg/kg s.c. once per day, Day 2",2
same,Stool Character (group's average score),"[5]; Study A, 50 mg/kg s.c. once per day, Day 3",1.8
same,Stool Character (group's average score),"[5]; Study A, 50 mg/kg s.c. once per day, Day 4",1.6
same,Stool Character (group's average score),"[5]; Study A, 50 mg/kg s.c. once per day, Day 5",1.6
same,Stool Character (group's average score),"[5]; Study A, 50 mg/kg s.c. once per day, Day 6",1.4
same,Stool Character (group's average score),"[5]; Study C, oral 10 mg/kg once per day, Day 1",2.75
same,Stool Character (group's average score),"[5]; Study C, oral 10 mg/kg once per day, Day 2",2.75
same,Stool Character (group's average score),"[5]; Study C, oral 10 mg/kg once per day, Day 3",2.75
same,Stool Character (group's average score),"[5]; Study C, oral 10 mg/kg once per day, Day 4",2.5
same,Stool Character (group's average score),"[5]; Study C, oral 10 mg/kg once per day, Day 5",2
same,Stool Character (group's average score),"[5]; Study C, oral 10 mg/kg once per day, Day 6",2.5
same,Stool Character (group's average score),"[5]; Study C, oral 10 mg/kg once per day, Day 7",2.25
same,Stool Character (group's average score),"[5]; Study C, oral 10 mg/kg once per day, Day 8",2.25
same,Stool Character (group's average score),"[5]; Study C, oral 10 mg/kg once per day, Day 9",2.25
same,Stool Character (group's average score),"[5]; Study C, oral 10 mg/kg once per day, Day 10",2.25
same,Stool Character (group's average score),"[5]; Study C, oral 10 mg/kg once per day, Day 11",2.25
same,Stool Character (group's average score),"[5]; Study C, oral 10 mg/kg once per day, Day 12",1.75
same,Stool Character (group's average score),"[5]; Study C, oral 10 mg/kg once per day, Day 13",2.25
same,Stool Character (group's average score),"[5]; Study C, oral 10 mg/kg once per day, Day 14",2
same,Stool Character (group's average score),"[5]; Study C, oral 10 mg/kg once per day, Day 15",1.75
